Assays:
GST-galectin-14 = experiment: Saccharide inhibition of GST-galectin-14 induced hemagglutination; type: cell-based, rabbit; settings: 0.28 μM GST-galectin-14; sugars 0.78-100 mM
Experimental: FIG. 14 is an image of a hemagglutination assay using GST-galectin-14 fusion protein. Agglutination of rabbit erythrocytes was assayed in a 96-well microtiter plate. Assays were conducted in the presence (2, 3, 4, and 5) or absence (1 and 6) of 0.28 μM recombinant GST-galectin-14, the minimum concentration to induce agglutination. Increasing concentrations (0.78-100 mM) of lactose (2), galactose (3), or N-acetyl-glucosamine (4) were added to inhibit agglutination. In the presence of GST-galectin-14 without sugar (5) the rabbit erythrocytes form a “mat” at the bottom of the wells. The assay buffer DES alone (1) and 3 μM rGST (6) were included as negative controls. Trypsin-treated, glutaraldehyde fixed rabbit erythrocytes were prepared and tested in an agglutination assay according to the method of Nowak et al. (Nowak et al. (1976) supra). Agglutination assays were performed in 96-well V-shaped microtiter plates with serial 2-fold dilutions of samples in 25 μl of DES (0.15 M NaCl, 2 mM EDTA, 2 mM dithiothreitol), 50 μl of 0.5% (w/v) BSA in 0.15 M NaCl and 25 μl of a 4% suspension of rabbit erythrocytes. The plates were shaken vigorously for 30 s, and agglutination was read after the plates had stood at room temperature for 1 h. Agglutinated erythrocytes formed a “mat” on the bottom of the well. For assessment of the inhibitory effects of saccharides, lactose, galactose, and N-acetyl-glucosamine were serially diluted in 25 μl of 0.15 M NaCl prior to the addition of recombinant protein in DES, 25 μl of 1% (w/v) BSA in 0.15 M NaCl, and 4% erythrocytes in PBS. The minimum concentration of GST-galectin-14 that gave mat formation (0.28 μM) was used in the saccharide inhibition assay. For assessment of the effects of antibody on GST-galectin-14 hemagglutination, ascites and supernatants from monoclonal antibodies and polyclonal rabbit sera all raised to recombinant galectin-14 were serially diluted in 25 μl of 0.15 M NaCl prior to the addition of recombinant protein in DES, 25 μl of 1% (w/v) BSA in 0.15 M NaCl, and 4% erythrocytes in PBS. […]

[1] = tested on: GST-galectin-14 binding to laminin; experiment: Lactose inhibition of GST-galectin-14 binding to immobilised laminin; settings: 0.3 M lactose added
Experimental: FIG. 17 is an image of the saturation binding of GST-galectin-14 fusion protein to immobilised laminin. Laminin binding of GST-galectin-14 fusion protein was assayed using a solid-phase binding assay in a 96-well microtitre plate. Serial dilutions of GST-galectin-14 (▪) and GST (▴) were added to microtitre wells containing laminin. 0.3 M Lactose was added to GST-galectin-14 to inhibit binding (◯). The level of bound protein was monitored by the binding of rabbit anti-GST HRP antibody developed with TMB substrate and detected by a change in absorbance at 450 nm. Laminin binding activity was measured according to the method of Mazurek et al. with some modification. Briefly, the wells of a 96-well microtitre plate were coated with laminin from Engelbreth-Holm-Swarm murine sarcoma (Sigma) at 1 μg/100 μl of carbonate coating buffer (15 mM Na2CO3, 35 mM NaHCO3, pH 9.6) per well overnight at 4° C. Non-specific binding sites were blocked with 200 μl of 0.5% Tween 20 in PBS for 1 h. Plates were washed 3 times in 0.05% Tween 20 PBS and incubated with 50 μl serial dilutions of GST-galectin-14 or GST alone, diluted in 0.5% Tween 20 PBS, for 1.5 h at 37° C. Control wells contained 0.3 M lactose. […] The reaction was terminated with 100 μl 2 M sulphuric acid and the colour change monitored using a dual wavelength mode plate reader (Bio-tek instruments) at 450 nm, ref 690 nm.

rabbit erythrocytes = experiment: Hemagglutination assay on trypsin-treated, glutaraldehyde fixed rabbit erythrocytes; type: cell-based; settings: negative control protein, 3 μM rGST
Experimental: Trypsin-treated, glutaraldehyde fixed rabbit erythrocytes were prepared and tested in an agglutination assay according to the method of Nowak et al. (Nowak et al. (1976) supra). Agglutination assays were performed in 96-well V-shaped microtiter plates with serial 2-fold dilutions of samples in 25 μl of DES (0.15 M NaCl, 2 mM EDTA, 2 mM dithiothreitol), 50 μl of 0.5% (w/v) BSA in 0.15 M NaCl and 25 μl of a 4% suspension of rabbit erythrocytes. The plates were shaken vigorously for 30 s, and agglutination was read after the plates had stood at room temperature for 1 h. Agglutinated erythrocytes formed a “mat” on the bottom of the well. For assessment of the inhibitory effects of saccharides, lactose, galactose, and N-acetyl-glucosamine were serially diluted in 25 μl of 0.15 M NaCl prior to the addition of recombinant protein in DES, 25 μl of 1% (w/v) BSA in 0.15 M NaCl, and 4% erythrocytes in PBS. The minimum concentration of GST-galectin-14 that gave mat formation (0.28 μM) was used in the saccharide inhibition assay. For assessment of the effects of antibody on GST-galectin-14 hemagglutination, ascites and supernatants from monoclonal antibodies and polyclonal rabbit sera all raised to recombinant galectin-14 were serially diluted in 25 μl of 0.15 M NaCl prior to the addition of recombinant protein in DES, 25 μl of 1% (w/v) BSA in 0.15 M NaCl, and 4% erythrocytes in PBS. […]

| Compound | lowest sugar concentration at which inhibition of agglutination becomes evident (GST-galectin-14) [mM] | effect on binding of GST-galectin-14 to laminin [1] | induction of hemagglutination (rabbit erythrocytes) |
| --- | --- | --- | --- |
| O=C[C@H](O)[C@@H](O)[C@@H](O)[C@H](O)CO [galactose] | 12.5 |  |  |
| CC(=O)N[C@H]1C(O)O[C@H](CO)[C@@H](O)[C@@H]1O (some centres unmarked) [N-acetyl-glucosamine] | 50 |  |  |
| OC[C@H]1O[C@@H](O[C@H]2[C@H](O)[C@@H](O)C(O)O[C@@H]2CO)[C@H](O)[C@@H](O)[C@H]1O (some centres unmarked) [lactose] | 0.78 | reduced to the level of the control |  |
| GST: GST moiety alone, used as negative control protein [reference compound] |  |  | does not |
